This note sets out measurements from patent publication US9187784B2, “EphA4 is a disease modifier in motor neuron disease” (VIB VZW, priority 2011, dated 2015).

Marks after values point to notes of the source that are not given here.

In data set [1] the test system is mutant SOD1-overexpressing fish. Nature of the data set: mutant SOD1-induced motor axonopathy in zebrafish embryos (percentage affected embryos, motor axon length). It is filed as in vivo. The source says: FIG. 1: EphA4 knockdown rescues mutant SOD1-induced motor axonopathy. […] Abnormal branching is indicated with arrowhead. Y-axes show motor axon length of zebrafish embryos expressing wild-type SOD1 (black bar, Panels D-G) or mutant SOD1 (white bar, Panels D-G). Knockdown of RTK2 in SOD1A4V- (Panel D), SOD1G93A- (Panel E) and SOD1G37R- (Panel F) expressing fish was established by co-injection of increasing amounts of atg-RTK2 morpholino (shaded bars). RTK1 expression was inhibited in SOD1A4V-expressing fish by co-injection of atg-RTK1 morpholino (shaded bars, Panel G). Ctr-RTK2 and ctr-RTK1 were used as control. ANOVA and Bonferroni's multiple comparison tests were used for statistical analysis. Comparing axonal length in SOD1A4V fish injected with ctr-RTK2 (n=39) vs. different doses atg-RTK2: 3 ng (n=43, p=0.0059), 4.5 ng (n=37, p=0.0016, Panel D), SOD1G93A: ctr-RTK2 (n=60) vs. atg-RTK2: 1.5 ng (n=55, p=0.015), 3 ng (n=51, p=2.82×10-9), 4.5 ng (n=46, p=2.22×10-15, Panel E), SOD1G37R: ctr-RTK2 (n=37) vs. atg-RTK2: 3 ng (n=25, p=0.027), 4.5 ng (n=36, p=0.0018, Panel F) and SOD1A4V: ctr-RTK1 (n=49) vs. atg-RTK1: 1.5 ng (n=51, p=2.51×10-7), 3 ng (n=64, p=7.99×10-10), 4.5 ng (n=54, p<1×10-20, Panel G). Western blot of SOD1WT or SOD1A4V (1.76 ng) expressing zebrafish embryos (30 hpf), co-injected with either ctr-RTK1 or atg-RTK1 (4.5 ng). Sixty embryos were used per group with actin as the loading control (H). Immunostaining of rtk1 (green) in rhombomeres 3 and 5 and of ephrin-b2 (magenta) in rhombomere 4 in zebrafish embryos injected with either ctr-RTK1 or atg-RTK1 (4.5 ng). RTK1-depleted embryos show disorganized rhombomere boundaries (arrowhead, I, Scale bar 50 μm). Error bars are s.e.m.
FIG. 2: RTK2 knockdown protects motor axons against SOD1^A4V-induced injury. Effect of RTK2 knockdown, established by injection of splice-rtk2 morpholino, on the motor axon length of SOD1^A4V-expressing zebrafish embryos (30 hpf). SOD1^WT-expressing fish and a non-functional five-base pair-mismatch control morpholino (ctr-RTK2) were used as control (Panel A). ANOVA and Bonferroni's multiple comparison tests were used for statistical analysis: SOD1^A4V/ctr-RTK2 (n=56) vs. SOD1^A4V/spl-RTK2 (n=60, 1.79×10^−4). Spl-RTK2 was designed against the exon 2 splice site of the zebrafish RTK2 pre-mRNA and alternatively skipped out exon 2. RT-PCR on non-transgenic fish (lane 1), ctr-RTK2-injected fish (lane 2) and spl-RTK2-injected fish (lane 3) at 30 hpf. Functional RTK2 mRNA, containing exon 2, is indicated by the 818-bp product (upper band) while non-functional RTK2 mRNA, lacking exon 2 is indicated by the 156-bp product (lower band), 60 embryos each group (Panel B). Error bars are s.e.m.
FIG. 12: Pharmacological inhibition of EphA4 receptor signaling protects against mutant SOD1 pathology in vivo. Effect of treatment with Compound 1 (C1, 500 μM) on the motor axon length of zebrafish embryos (30 hpf). DMSO (1/250 dilution) was used as control (Panel A). ANOVA and Bonferroni's multiple comparison tests were used for statistical analysis: SOD1^A4V/C1 (n=68) vs. SOD1^A4V/DMSO (n=76, p=3.54×10^−5). Effect of KYL-peptide (3 mM) treatment of 60-day-old SOD1^G93A rats on disease onset (Panel B) and survival (Panel C). Artificial CSF (ACSF) was used as control. Average disease onset: 133 days (treated, n=21) versus 125 days (control, n=17, T-test p=0.044). Average survival: 148 days (treated, n=21) versus 139 days (controls, n=17, T-test p=0.041). Error bars are s.e.m.
Effect of RTK2 knockdown (established by injection of atg-RTK2 morpholino) on the percentage of affected wild-type SOD1 or mutant SOD1 (A4V, G93A, G37R) zebrafish embryos (30 hpf). Ctr-RTK2 morpholino was used as control. An embryo was considered as affected when it had more than 10% abnormally branched motor axons. Significance of mtSOD1/ctr-RTK2 (4.5 ng) vs. mtSOD1/atg-RTK2 (4.5 ng) was determined by Mann-Whitney test, * p=0.0075, ° p=0.039 and # p=0.0052. […]

Another data set deals with zebrafish embryos. The data set is described as follows: Toxicity analysis of Compound 1 in zebrafish embryos (total body shape). Format: in vivo. The following applies: for death: read at 30 hpf; for malformed / normal: zebrafish, in vivo, 24 h. How it is done: Different concentrations of C1 were dissolved in the water of 6 hpf-old zebrafish embryos. At 30 hpf, toxicity (%) of C1 was investigated by analyzing total body shape of the embryos.
A morpholino database of translation-blocking morpholinos (atg-mo) was used to perform a morpholino-based knockdown screening in a zebrafish model for ALS.^13 The standard control morpholino (5′-[…]-′3) (SEQ ID NO:4), provided by Gene tools, was used as control. Three nanograms of morpholino were co-injected with […] of SOD1 mRNA and the effect of gene knockdown on the mutant SOD1-induced axonopathy analyzed. Each morpholino was tested in two separate experiments. Only morphologically normal embryos were included for further analysis. Overexpression of SOD1 or TDP-43, applied to validate the protective morpholino, was established by injection of 1.76 ng SOD1 mRNA or 1.43 ng TDP-43 mRNA, respectively. Antisense morpholinos to knockdown zebrafish RTK1, RTK2, Smn and their five base pair-mismatch control morpholinos were developed by Gene tools: atg-RTK1 (5′-[…]-′3) (SEQ ID NO:5), atg-RTK2 (5′-[…]-[…]-′3) (SEQ ID NO:6), splice-RTK2 (5′-[…]-[…]-′3) (SEQ ID NO:7) and atg-smn (5′-[…]-3′) (SEQ ID NO:8). Compound 1 (2,5-dimethylpyrrolyl benzoic acid, Matrix Scientific) dissolved in DMSO was added to the water of 6-hpf-old zebrafish embryos.

As to “5′-CTGTGAACACAAGCGCAGCCATTGG-′3 (all phosphorodiamidate morpholino (PMO)) [atg-RTK1]”, the “% affected fish” value in data set [1] (Table 4, SOD1A4V fish, morpholino 1.5 ng) is recorded as 38 (24) %; in data set [1] (Table 4, SOD1A4V fish, morpholino 3 ng), 22 (33) %; in data set [1] (Table 4, SOD1A4V fish, morpholino 4.5 ng) it was 8* (26) %; in data set [1] (Table 4, SOD1WT fish, morpholino 4.5 ng) it was 14 (14) %.

On to `Cc1ccc(C)n1-c1ccc(C(=O)O)c(O)c1` [Compound C1], for which the death with zebrafish embryos (C1 250 μM in water from 6 hpf) is recorded as 6.12%; in the data set on zebrafish embryos (C1 500 μM in water from 6 hpf), 2.80%; in the data set on zebrafish embryos (C1 750 μM in water from 6 hpf), 11.2%; in the data set with zebrafish embryos (C1 1000 μM in water from 6 hpf), 20%. The malformed in the data set on zebrafish embryos (250 μM) came out at 5.10%; in the data set with zebrafish embryos (500 μM) it was 3.74%; with zebrafish embryos (750 μM), 12.93%; with zebrafish embryos (1000 μM), 80%. For the same molecule, the normal in the data set on zebrafish embryos (250 μM) was determined as 88.77%; in the data set with zebrafish embryos (500 μM), 93.45%; in the data set with zebrafish embryos (750 μM), 75.86%; in the data set with zebrafish embryos (1000 μM) it was 0%. The “% affected fish” value was 11° (26) % in data set [1] (Table 4, SOD1A4V fish, C1 500 μM in the water) and 15 (32) % in data set [1] (Table 4, SOD1WT fish, C1 500 μM in the water).
